Laboratory results as given in publication PMC12040169 (PLOS Biology, 2025).

Assay: in vitro
Details: human, hela cells, % viability

Structure (SMILES)	viability at 28.5 h, 10 µM [%]
O=S(=O)(c1ccc(Cl)cc1)c1ccc2ccnc(N3CCCNCC3)c2c1 [CBK036416C]	82.9
COc1ccc([C@@]23CC[C@@H](NC(=O)Nc4cccc(C#N)c4)C[C@@H]2N(C)CC3)cc1OC [CBK036448T]	103
COc1ccc([C@@]23CC[C@@H](NC(=O)Nc4ccc(OC(F)(F)F)cc4)C[C@@H]2N(C)CC3)cc1OC [CBK036455T]	82.2
COc1ccc([C@@]23CC[C@@H](NC(=O)Nc4ccc(F)cc4)C[C@@H]2N(C)CC3)cc1OC [CBK036458T]	93.5
COc1ccc([C@@]23CC[C@@H](NC(=O)Nc4cccc(SC)c4)C[C@@H]2N(C)CC3)cc1OC [CBK036459T]	91.1
COc1ccc(NC(=O)N[C@@H]2CC[C@@]3(c4ccc(OC)c(OC)c4)CCN(C)[C@H]3C2)c(C)c1 [CBK036460T]	97.2
COc1ccc([C@@]23CC[C@@H](NC(=O)Nc4ccc(C(C)(C)C)cc4)C[C@@H]2N(C)CC3)cc1OC [CBK036469T]	92
COc1ccc([C@@]23CC[C@@H](NC(=O)Nc4cc(C)c(C)cc4[N+](=O)[O-])C[C@@H]2N(C)CC3)cc1OC [CBK036478T]	67.8
O=S(=O)(c1ccc(Cl)c(Cl)c1)c1ccc2nccc(N3CCNCC3)c2c1 [CBK036497C]	84.8
COc1ccc([C@@]23CC[C@@H](NC(=O)Nc4cc(C)ccc4F)C[C@@H]2N(C)CC3)cc1OC [CBK036509T]	102
COc1cc(C)c(NC(=O)c2cnc(-c3ccc(F)cc3)c(-c3ccncc3)c2)cc1OC [CBK036575]	97.5
OCCNc1nccnc1-c1ccoc1 [CBK036580]	106
CN(C)C(=O)c1cccc(-c2nccnc2NCCO)c1 [CBK036582]	90.3
CN(C)CCN1CCN(c2nc(-c3ccc4[nH]ccc4c3)cn3ccnc23)CC1 [CBK036587]	102
CC(=O)Nc1cccc(-c2nccnc2N2CCCCC2CCO)c1 (stereo not drawn) [CBK036591]	101
c1csc(CNc2nccnc2-c2ccoc2)c1 [CBK036599]	107
c1csc(CNc2nccnc2-c2cccs2)c1 [CBK036602]	92.6
CC(=O)Nc1cccc(-c2cn3ccnc3c(N[C@@H](CO)C(C)C)n2)c1 [CBK036605]	106
CCC(CO)Nc1nccnc1-c1ccsc1 (stereo not drawn) [CBK036606]	107
CCC(CO)Nc1nccnc1-c1ccc(CO)cc1 (stereo not drawn) [CBK036607]	93
COc1cc(Nc2nc(-c3cccc4ccccc34)cn3ccnc23)cc(OC)c1OC [CBK036608]	96.1

Structure (SMILES)	viability at 28.5 h, 10 µM [%]
OCCN(CCO)c1nccnc1-c1ccccc1F [CBK036610]	106
CN1CCN(c2nccnc2-c2cccnc2)CC1 [CBK036612]	89.8
CC(=O)c1ccc(-c2cc(C(=O)NCCc3cccnc3)cnc2-c2ccc(F)cc2)s1 [CBK036614]	102
Clc1cccc(CNc2nccnc2-c2ccoc2)c1 [CBK036616]	105
c1coc(CNc2nccnc2-c2cccs2)c1 [CBK036618]	85.5
COc1ccc(-c2cc(C(=O)Nc3ccc(OC(F)(F)F)cc3)cnc2-c2ccccc2)cn1 [CBK036621]	79.2
CC(=O)c1ccc(-c2cc(C(=O)Nc3ccc4c(c3)OCCO4)cnc2-c2ccc(Cl)cc2)s1 [CBK036627]	105
c1cnc(-c2ccoc2)c(NCCCN2CCOCC2)n1 [CBK036631]	95.3
COc1ccc(-c2cc(C(=O)N[C@@H](C)c3ccccc3)cnc2-c2cccc(C)c2)cc1 [CBK036635]	105
COc1ccc(-c2cc(C(=O)N3CCN(C(C)=O)CC3)cnc2-c2ccccc2)cn1 [CBK036637]	101
COc1ncc(-c2nccnc2N2CCCC2CO)c(OC)n1 (stereo not drawn) [CBK036638]	92.8
CC(C)[C@@H](CO)Nc1nccnc1-c1ccc(CN)cc1 [CBK036640]	104
NC(=O)c1ccc(-c2nccnc2NCCc2ccncc2)cc1 [CBK036644]	97.1
CC(=O)NCCNC(=O)c1cnc(-c2ccc(Cl)cc2)c(-c2ccc(O)cc2)c1 [CBK036647]	101
COc1ccc(-c2cc(C(=O)NCCc3c[nH]c4ccccc34)cnc2-c2ccc(F)cc2)cn1 [CBK036649]	95.2
CN(C)C(=O)c1cccc(-c2nccnc2NCc2cccc([N+](=O)[O-])c2)c1 [CBK036651]	94.3
Cc1cccc(-c2ncc(NC(=O)c3cccc(N(C)C)c3)nc2-c2ccco2)c1 [CBK036654]	103
CC(C)[C@H](CO)NC(=O)c1cnc(-c2ccc(Cl)cc2)c(-c2ccco2)c1 [CBK036658]	108
CC(=O)Nc1ccc(NC(=O)c2cnc(-c3cccc(C)c3)c(-c3ccncc3)c2)cc1C(F)(F)F [CBK036660]	49.6
CS(=O)(=O)CCNC(=O)c1cnc(-c2cccc(C(F)(F)F)c2)c(-c2ccncc2)c1 [CBK036661]	105
COc1ccc(-c2cc(C(=O)NCCc3cccc(C(F)(F)F)c3)cnc2-c2ccccc2)cn1 [CBK036662]	99.9

Structure (SMILES)	viability at 28.5 h, 10 µM [%]
COc1ccc(-c2cc(C(=O)NCCc3c[nH]cn3)cnc2-c2ccc(F)cc2)cn1 [CBK036675]	112
O=C(c1cnc(-c2ccccc2)c(-c2cccnc2)c1)N1CCC(S(=O)(=O)c2ccccc2)C1 (stereo not drawn) [CBK036685]	103
Nc1ccc(-c2nc(NC(=O)Cc3ccccc3)cnc2-c2ccc(F)c(Cl)c2)cc1 [CBK036690]	89.5
CC(C)[C@H](CO)NC(=O)c1cnc(-c2ccccc2)c(-c2ccncc2)c1 [CBK036691]	115
COc1ccc(-c2cc(C(=O)NCC(F)(F)F)cnc2-c2ccc(Cl)cc2)cn1 [CBK036698]	103
COc1ccc(-c2cc(C(=O)NCc3ccc(F)cc3)cnc2-c2cccc(C)c2)cc1 [CBK036702]	98.8
COc1ccc(C(C)C)cc1-c1nccnc1NC1CCC(N)CC1 (stereo not drawn) [CBK036703]	108
COc1ccc(-c2cc(C(=O)N3CCC(S(C)(=O)=O)C3)cnc2-c2ccccc2)cn1 (stereo not drawn) [CBK036706]	99.7
O=C(O)c1cccc(NC(=O)c2cnc(-c3ccccc3)c(-c3ccco3)c2)c1 [CBK036710]	93.4
COc1ccc(C(C)C)cc1-c1nccnc1N[C@@H](CO)C(C)C [CBK036711]	109
O=C(Nc1cnc(-c2cccc(C(F)(F)F)c2)c(-c2ccco2)n1)c1cccnc1 [CBK036714]	95.3
CC(=O)N1CCC(C(=O)Nc2cnc(-c3ccc(F)c(Cl)c3)c(-c3cccnc3)n2)CC1 [CBK036719]	108
CC(=O)c1ccc(OCC(=O)Nc2cnc(-c3cccc(C)c3)c(-c3ccc(N)cc3)n2)cc1 [CBK036722]	107
Cc1noc(C)c1C(=O)Nc1cnc(-c2cccc(C(F)(F)F)c2)c(-c2cccnc2)n1 [CBK036727]	96.8
COc1ccc(-c2cc(C(=O)NCc3ccc(N)cc3)cnc2-c2cccc(C)c2)cc1 [CBK036728]	106
COc1ccc(-c2cc(C(=O)NCCc3ccccn3)cnc2-c2cccc(C)c2)cc1 [CBK036730]	93.7
C[C@@H](Nc1nccnc1-c1cccc(F)c1)c1ccccc1 [CBK036733]	98.3
CC(C)(CO)CNC(=O)c1cnc(-c2ccccc2)c(-c2ccncc2)c1 [CBK036734]	111
c1ccc2c(CCNc3nccnc3-c3ccoc3)c[nH]c2c1 [CBK036743]	102
Cc1cccc(-c2ncc(NC(=O)CC3OC(=O)c4ccccc43)nc2-c2ccc(N)cc2)c1 (stereo not drawn) [CBK036749]	91.5
CC(NC(=O)c1cnc(-c2ccc(Cl)cc2)c(-c2ccc(O)cc2)c1)c1ccc(F)cc1 (stereo not drawn) [CBK036751]	89.9

Structure (SMILES)	viability at 28.5 h, 10 µM [%]
COC1CCC(C(=O)Nc2cnc(-c3cccc(OC(F)(F)F)c3)c(-c3cccnc3)n2)CC1 (stereo not drawn) [CBK036754]	97.4
COc1ccccc1-c1nccnc1NCc1ccc(OC(F)(F)F)cc1 [CBK036761]	96
Fc1cccc(-c2nccnc2NCCc2ccncc2)c1 [CBK036763]	95.8
CCC(CO)Nc1nccnc1-c1cccc(F)c1 (stereo not drawn) [CBK036775]	108
COc1cccc(CNc2nccnc2-c2ccoc2)c1OC [CBK036782]	105
Nc1cccc(-c2nccnc2N2CCCC2CO)c1 (stereo not drawn) [CBK036786]	102
CN(C)CCN1CCN(c2ccc(-c3ccc(OC(F)(F)F)cc3)cn2)CC1 [CBK036796]	94.7
COc1ccc(Nc2ccc(-c3ccc4c(c3)OCO4)cn2)c(C)c1 [CBK036799]	102
CCC(CO)Nc1nccnc1-c1cccs1 (stereo not drawn) [CBK036800]	98.3
CO[C@@H](C(=O)Nc1cnc(-c2ccc(F)cc2)c(-c2ccsc2)n1)c1ccccc1 [CBK036803]	98.4
FC(F)(F)Oc1ccc(CNc2nccnc2-c2cccs2)cc1 [CBK036806]	100
O=C(CCc1cccnc1)Nc1cnc(-c2cccc(OC(F)(F)F)c2)c(-c2cccnc2)n1 [CBK036811]	94.5
O=C(c1ccc(-c2nccnc2NCC2CC2)cc1)N1CCOCC1 [CBK036814]	88.8
COc1ccc(-c2ccc(N3CCN(CCN(C)C)CC3)nc2)cc1OC [CBK036818]	98.2
O=C(Nc1cnc(-c2ccc(F)c(Cl)c2)c(-c2cccnc2)n1)c1cnccn1 [CBK036819]	102
CN(C)CCN(C)c1ccc(-c2cc3ccccc3o2)cn1 [CBK036820]	107
Fc1ccc(-c2ccc(N3CCN(c4ccncc4)CC3)nc2)cc1Cl [CBK036821]	111
CN(C)CCN(C)c1cccc(/C=C/c2ccccc2)n1 [CBK036826]	109
COc1ccc(Nc2ccc(-c3cnc(OC)nc3OC)cn2)c(C)c1 [CBK036827]	115
C=CCNc1nccnc1-c1ccccc1OC [CBK036831]	106
O=C1CCCN1CCCNc1nccnc1-c1ccncc1 [CBK036832]	106
